In US20200140812A1, “NOVEL METHODS FOR THE GENERATION AND USE OF HUMAN INDUCED NEURAL BORDER STEM CELLS” (HI-STEM gGmbH, priority 2017, published 2020):

Assays:
pNBSCs = test: Culture of pNBSCs on Matrigel in absence of feeders with Notch-ligands; type: cell-based, mouse; settings: cultured on MG with DII4 and Jagged1 together, 500 ng/ml each
Method: a, Preparation of E8.5 stage embryos for isolation of pNBSCs. Representative microscopy pictures of an E8.5 stage embryo prior to dissection of neural tissue. […] Results are shown for two independent pNBSC clones and E13.5 stage derived RG-like SCs (n=3; t-test, **P<0.01, Mean with SEM). g, Culture of pNBSCs on inactivated MEFs (feeder) or Matrigel in presence or absence of Notch-ligands 500 ng/ml DII4 and 500 ng/ml Jagged-1. h, Regional identity of pNBSCs. mRNA expression of region specific markers was determined in three independent pNBSCs lines. Expression was normalized to whole E13.5 stage fetal brains. i, Flow cytometry data of a pNBSC line under maintenance and neural crest priming condition. pNBSCs were either cultured in CAP or CA+BMP4 for 5 days before levels of Ssea1 and P75 were determined by flow cytometry. j, Immunofluorescence stainings for serotonin on neuronal differentiation. pNBSCs were differentiated in presence of Purmorphamine for 3 days and matured for additional 2 weeks before stainings were performed; scale bar 50 μm. k, BF pictures of pNBSCs embedded as single cell suspension in MG after CNS- and NC-priming. pNBSCs were cultured in CSP for 6 days (upper panel) or CABF for 10 days (lower panel). […]

P2RX3-receptors = target: T1, P2RX3-receptors (Homo sapiens, UniProt P56373); test: Calcium flux measurements (Fluo-3 AM) in iNBSC-derived sensory neurons; type: cell-based
T1 construct: endogenous in cells; host or cells: sensory neurons differentiated from human iNBSCs (WT and SCN9a-/- cultures)
T1 sequence (P56373 1-397): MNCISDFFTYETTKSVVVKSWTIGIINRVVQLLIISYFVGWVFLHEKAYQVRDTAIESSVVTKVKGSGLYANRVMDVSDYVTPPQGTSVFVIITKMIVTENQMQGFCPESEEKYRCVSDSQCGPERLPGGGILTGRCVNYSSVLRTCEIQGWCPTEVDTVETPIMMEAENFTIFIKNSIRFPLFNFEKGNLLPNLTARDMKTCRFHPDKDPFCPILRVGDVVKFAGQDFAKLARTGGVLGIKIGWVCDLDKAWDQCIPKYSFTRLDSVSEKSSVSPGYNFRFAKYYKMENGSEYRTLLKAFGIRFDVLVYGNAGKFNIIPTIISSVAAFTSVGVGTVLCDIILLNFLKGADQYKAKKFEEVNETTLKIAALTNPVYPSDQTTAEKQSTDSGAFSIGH
Method: Cell cultures were incubated in a solution containing the cell-permeable fluorescent Ca2+ indicator Fluo-3 AM (2 μM; F1242, Thermo Scientific™) and Cell Tracker Red CMTPX (1 μM; C34552, Thermo Scientific™) to delineate cell membranes. Dye loading was carried out in an incubator at 37° C., 5% CO2 for 30 min.
Imaging of fluorescently labeled cells was performed on a TCS SP5 microscope (Leica) equipped with a 20×(1 numerical aperture) water-immersion objective. Images (512×512 pixels) were acquired at 1000 Hz speed every 0.8-1.6 seconds with 0.5 μm per pixel resolution in the xy dimension, and 3-4 μm steps in the z dimension. Argon and HeNe-543 lasers were used to excite Fluo-3 AM and Cell Tracker Red CMTPX dyes, respectively. […] After recording baseline fluorescence for 2 minutes, α,β-methylene ATP was applied (30 μM in ACSF; COMPANY) for 2 minutes. […]
We obtained relative fluorescence changes (Fi/F0), where F0 is the fluorescence image formed by averaging the first 50 frames of the sequence, and F(i) represents each (i) frame of the recording. […]
We then studied global calcium activity by averaging fluorescence intensity in the whole image before and in response to stimulation with α,β-methylene ATP in WT−(n=3) and SCN9−/− (n=4) neuronal cultures.

Compound	rapid differentiation of pNBSCs in the absence of feeders (pNBSCs)	further results
DII4: Notch-ligand	partially halted	
Jagged1: Notch-ligand	partially halted	
O=C(O)c1cc(C(=O)O)c(C(=O)N(Cc2cccc(Oc3ccccc3)c2)[C@H]2CCCc3ccccc32)cc1C(=O)O [A-317491]		α,β-Methylene-ATP-induced calcium flux (neuronal activity) in the presence of antagonist (P2RX3-receptors; 1 μM A-317491, stimulation with 30 μM α,β-methylene ATP, WT sensory neurons, compared to controls, t-test P<0.05): significantly reduced
Nc1ncnc2c1ncn2[C@@H]1O[C@H](COP(=O)(O)CP(=O)(O)OP(=O)(O)O)[C@@H](O)[C@H]1O [α,β-Methylene-ATP]		neuronal activity by calcium flux measurements upon stimulation (P2RX3-receptors; 30 μM α,β-methylene ATP, WT iNBSC-derived sensory neurons, Fluo-3 AM fluorescence relative to baseline): robust increase of activity
